For 28 compounds, MIC results are on record in ChEMBL document CHEMBL3779796, “One-pot synthesis and antimicrobial evaluation of novel 3-cyanopyridine derivatives of (-)-β-pinene” (2016).

Format in all cases: functional
Test [1] has as its system Staphylococcus epidermidis. Description: Antimicrobial activity against Staphylococcus epidermidis after 24 hrs by serial two-fold microbroth dilution method. On the technique in general: Dilution methods test growth across graded concentrations, often in twofold steps.
A further test relates to Klebsiella pneumoniae. Description: Antimicrobial activity against Klebsiella pneumoniae after 24 hrs by serial two-fold microbroth dilution method.
Another test concerns Klebsiella aerogenes. Description: Antimicrobial activity against Enterobacter aerogenes after 24 hrs by serial two-fold microbroth dilution method.
The subject of a further test is Candida albicans. The test is described as follows: Antimicrobial activity against Candida albicans after 48 hrs by serial two-fold microbroth dilution method.
In the next test the test system is Staphylococcus aureus. Description: Antimicrobial activity against Staphylococcus aureus after 24 hrs by serial two-fold microbroth dilution method.

≈ marks a conversion by molar mass, not a printed value.

As for `CC1(C)[C@H]2Cc3c(nc(O)c(C#N)c3-c3ccc(F)cc3)[C@@H]1C2`, the MIC (usually the least concentration at which growth counts as inhibited) in test [1] is 15.6 µg/mL (≈ 50.6 µM); against Klebsiella pneumoniae, 62.5 µg/mL (≈ 203 µM); in the test on Klebsiella aerogenes it was 62.5 µg/mL (≈ 203 µM); against Candida albicans, 31.3 µg/mL (≈ 102 µM); against Staphylococcus aureus, 31.3 µg/mL (≈ 102 µM).

`CC1(C)[C@H]2Cc3c(nc(O)c(C#N)c3-c3ccc(F)c(F)c3)[C@@H]1C2`: the MIC in test [1] was 15.6 µg/mL (≈ 47.8 µM); against Klebsiella pneumoniae, 62.5 µg/mL (≈ 192 µM); in the test on Klebsiella aerogenes, 62.5 µg/mL (≈ 192 µM); with Candida albicans it was 15.6 µg/mL (≈ 47.8 µM); against Staphylococcus aureus it was 31.3 µg/mL (≈ 95.9 µM).

As to `CC1(C)[C@H]2Cc3c(nc(N)c(C#N)c3-c3ccc(F)c(F)c3)[C@@H]1C2`, the MIC in test [1] was 125 µg/mL (≈ 384 µM); in the test with Klebsiella pneumoniae it was 125 µg/mL (≈ 384 µM); in the test on Klebsiella aerogenes it was 125 µg/mL (≈ 384 µM); against Candida albicans, 31.3 µg/mL (≈ 96.2 µM); against Staphylococcus aureus, above 125 µg/mL.

As to `CC1(C)[C@H]2Cc3c(nc(O)c(C#N)c3-c3ccccc3Cl)[C@@H]1C2`, the MIC in test [1] is 125 µg/mL (≈ 385 µM); against Klebsiella pneumoniae, 125 µg/mL (≈ 385 µM); in the test with Klebsiella aerogenes it was 62.5 µg/mL (≈ 192 µM); against Candida albicans, 125 µg/mL (≈ 385 µM); with Staphylococcus aureus it was 125 µg/mL (≈ 385 µM).

In the case of `CC1(C)[C@H]2Cc3c(nc(O)c(C#N)c3-c3ccc(Cl)cc3Cl)[C@@H]1C2`, the minimal inhibitory concentration (MIC) in test [1] is 31.3 µg/mL (≈ 87.1 µM); against Klebsiella pneumoniae it was 125 µg/mL (≈ 348 µM); in the test with Klebsiella aerogenes, 62.5 µg/mL (≈ 174 µM); with Candida albicans it was 62.5 µg/mL (≈ 174 µM); in the test with Staphylococcus aureus it was 62.5 µg/mL (≈ 174 µM).

On to `CC1(C)[C@H]2Cc3c(nc(O)c(C#N)c3-c3ccc(Cl)cc3)[C@@H]1C2`, for which the MIC in test [1] was found to be 31.3 µg/mL (≈ 96.4 µM); in the test with Klebsiella pneumoniae, 62.5 µg/mL (≈ 192 µM); in the test with Klebsiella aerogenes, 62.5 µg/mL (≈ 192 µM); in the test with Candida albicans it was 31.3 µg/mL (≈ 96.4 µM); with Staphylococcus aureus, 31.3 µg/mL (≈ 96.4 µM).

Turning to `COc1ccc(-c2c(C#N)c(N)nc3c2C[C@H]2C[C@@H]3C2(C)C)cc1OC`, the MIC in test [1] is 125 µg/mL (≈ 358 µM); with Klebsiella pneumoniae, above 125 µg/mL; against Klebsiella aerogenes, above 125 µg/mL; against Candida albicans, 62.5 µg/mL (≈ 179 µM); with Staphylococcus aureus it was above 125 µg/mL.

As to `CC1(C)[C@H]2Cc3c(nc(O)c(C#N)c3-c3ccc(C(F)(F)F)cc3)[C@@H]1C2`, the MIC in test [1] was 125 µg/mL (≈ 349 µM); against Klebsiella pneumoniae, above 125 µg/mL; with Klebsiella aerogenes, 125 µg/mL (≈ 349 µM); in the test with Candida albicans, 125 µg/mL (≈ 349 µM); with Staphylococcus aureus, 125 µg/mL (≈ 349 µM).

For `COc1cccc(-c2c(C#N)c(N)nc3c2C[C@H]2C[C@@H]3C2(C)C)c1`, the MIC (in test [1]; against Klebsiella pneumoniae; in the test with Klebsiella aerogenes; in the test on Candida albicans; against Staphylococcus aureus) was 125 µg/mL (≈ 391 µM) each time.

Regarding `Cc1ccc(-c2c(C#N)c(N)nc3c2C[C@H]2C[C@@H]3C2(C)C)cc1`, the MIC was above 125 µg/mL in test [1]; above 125 µg/mL against Klebsiella pneumoniae; above 125 µg/mL in the test with Klebsiella aerogenes; 125 µg/mL (≈ 412 µM) with Candida albicans; above 125 µg/mL in the test with Staphylococcus aureus.

Consider `COc1ccccc1-c1c(C#N)c(O)nc2c1C[C@H]1C[C@@H]2C1(C)C`, for which the minimum inhibitory concentration (MIC) in test [1] is 125 µg/mL (≈ 390 µM); against Klebsiella pneumoniae, 125 µg/mL (≈ 390 µM); against Klebsiella aerogenes, 125 µg/mL (≈ 390 µM); in the test on Candida albicans, 62.5 µg/mL (≈ 195 µM); against Staphylococcus aureus it was 125 µg/mL (≈ 390 µM).

Turning to `CC1(C)[C@H]2Cc3c(nc(N)c(C#N)c3-c3cccc(Br)c3)[C@@H]1C2`, the minimal inhibitory concentration (MIC) in test [1] was 125 µg/mL (≈ 339 µM); against Klebsiella pneumoniae it was 125 µg/mL (≈ 339 µM); in the test with Klebsiella aerogenes it was 125 µg/mL (≈ 339 µM); against Candida albicans, 125 µg/mL (≈ 339 µM); in the test on Staphylococcus aureus, above 125 µg/mL.

On to `COc1cccc(-c2c(C#N)c(O)nc3c2C[C@H]2C[C@@H]3C2(C)C)c1`, for which the MIC in test [1] amounted to 62.5 µg/mL (≈ 195 µM); against Klebsiella pneumoniae it was 125 µg/mL (≈ 390 µM); against Klebsiella aerogenes, 125 µg/mL (≈ 390 µM); with Candida albicans it was 125 µg/mL (≈ 390 µM); in the test on Staphylococcus aureus it was 62.5 µg/mL (≈ 195 µM).

For `CC1(C)[C@H]2Cc3c(nc(N)c(C#N)c3-c3ccccc3Cl)[C@@H]1C2`, the MIC (in test [1]; in the test on Klebsiella pneumoniae; against Klebsiella aerogenes; in the test with Candida albicans; against Staphylococcus aureus) was 125 µg/mL (≈ 386 µM) in each case.

Consider `COc1ccccc1-c1c(C#N)c(N)nc2c1C[C@H]1C[C@@H]2C1(C)C`, for which the MIC was 125 µg/mL (≈ 391 µM) in test [1]; above 125 µg/mL against Klebsiella pneumoniae; above 125 µg/mL against Klebsiella aerogenes; 125 µg/mL (≈ 391 µM) against Candida albicans; above 125 µg/mL with Staphylococcus aureus.

On to `CC1(C)[C@H]2Cc3c(nc(O)c(C#N)c3-c3cccc(O)c3)[C@@H]1C2`, for which the minimum inhibitory concentration (MIC) in test [1] was found to be 31.3 µg/mL (≈ 102 µM); against Klebsiella pneumoniae it was 62.5 µg/mL (≈ 204 µM); in the test with Klebsiella aerogenes, 62.5 µg/mL (≈ 204 µM); against Candida albicans, 62.5 µg/mL (≈ 204 µM); against Staphylococcus aureus, 62.5 µg/mL (≈ 204 µM).

As to `Cc1ccc(-c2c(C#N)c(O)nc3c2C[C@H]2C[C@@H]3C2(C)C)cc1`, the minimum inhibitory concentration (MIC) was 125 µg/mL (≈ 411 µM) in test [1]; above 125 µg/mL against Klebsiella pneumoniae; above 125 µg/mL in the test on Klebsiella aerogenes; 125 µg/mL (≈ 411 µM) against Candida albicans; 125 µg/mL (≈ 411 µM) with Staphylococcus aureus.

Take `CC1(C)[C@H]2Cc3c(nc(N)c(C#N)c3-c3ccc(Cl)cc3)[C@@H]1C2`: the MIC in test [1] was determined as 125 µg/mL (≈ 386 µM); with Klebsiella pneumoniae it was 125 µg/mL (≈ 386 µM); with Klebsiella aerogenes, 125 µg/mL (≈ 386 µM); in the test with Candida albicans, 62.5 µg/mL (≈ 193 µM); against Staphylococcus aureus it was 125 µg/mL (≈ 386 µM).

Turning to `CC1(C)[C@H]2Cc3c(nc(O)c(C#N)c3-c3ccccc3)[C@@H]1C2`, the minimal inhibitory concentration (MIC) in test [1] is 125 µg/mL (≈ 430 µM); against Klebsiella pneumoniae, above 125 µg/mL; in the test on Klebsiella aerogenes, above 125 µg/mL; against Candida albicans it was 125 µg/mL (≈ 430 µM); in the test with Staphylococcus aureus, 125 µg/mL (≈ 430 µM).

On to `CC1(C)[C@H]2Cc3c(nc(N)c(C#N)c3-c3ccc(F)cc3)[C@@H]1C2`, for which the MIC in test [1] is 125 µg/mL (≈ 407 µM); with Klebsiella pneumoniae it was 125 µg/mL (≈ 407 µM); against Klebsiella aerogenes, 125 µg/mL (≈ 407 µM); against Candida albicans it was 62.5 µg/mL (≈ 203 µM); in the test with Staphylococcus aureus, above 125 µg/mL.

`CC1(C)[C@H]2Cc3c(nc(N)c(C#N)c3-c3ccc(Br)cc3)[C@@H]1C2`: the MIC is 125 µg/mL (≈ 339 µM) in test [1]; 125 µg/mL (≈ 339 µM) against Klebsiella pneumoniae; 125 µg/mL (≈ 339 µM) against Klebsiella aerogenes; 62.5 µg/mL (≈ 170 µM) against Candida albicans; 125 µg/mL (≈ 339 µM) against Staphylococcus aureus.

For the compound `CC1(C)[C@H]2Cc3c(nc(N)c(C#N)c3-c3cccc(O)c3)[C@@H]1C2`, the minimum inhibitory concentration (MIC) was 125 µg/mL (≈ 409 µM) in test [1]; 125 µg/mL (≈ 409 µM) with Klebsiella pneumoniae; 125 µg/mL (≈ 409 µM) against Klebsiella aerogenes; 125 µg/mL (≈ 409 µM) with Candida albicans; above 125 µg/mL in the test with Staphylococcus aureus.

As to `CC1(C)[C@H]2Cc3c(nc(O)c(C#N)c3-c3cccc(Br)c3)[C@@H]1C2`, the MIC in test [1] was 31.3 µg/mL (≈ 84.8 µM); in the test on Klebsiella pneumoniae, 62.5 µg/mL (≈ 169 µM); in the test with Klebsiella aerogenes, 62.5 µg/mL (≈ 169 µM); against Candida albicans, 31.3 µg/mL (≈ 84.8 µM); in the test with Staphylococcus aureus, 62.5 µg/mL (≈ 169 µM).

As for `CC1(C)[C@H]2Cc3c(nc(N)c(C#N)c3-c3ccccc3)[C@@H]1C2`, the minimum inhibitory concentration (MIC) in test [1] was 125 µg/mL (≈ 432 µM); with Klebsiella pneumoniae, above 125 µg/mL; against Klebsiella aerogenes, above 125 µg/mL; in the test with Candida albicans it was 125 µg/mL (≈ 432 µM); in the test with Staphylococcus aureus, above 125 µg/mL.

Consider `CC1(C)[C@H]2Cc3c(nc(O)c(C#N)c3-c3ccc(Br)cc3)[C@@H]1C2`, for which the MIC turned out to be 62.5 µg/mL (≈ 169 µM) in test [1]; 62.5 µg/mL (≈ 169 µM) with Klebsiella pneumoniae; 125 µg/mL (≈ 339 µM) in the test on Klebsiella aerogenes; 31.3 µg/mL (≈ 84.8 µM) in the test with Candida albicans; 62.5 µg/mL (≈ 169 µM) against Staphylococcus aureus.

As for `CC1(C)[C@H]2CCC(=O)[C@@H]1C2`, the minimal inhibitory concentration (MIC) (in test [1]; in the test with Klebsiella pneumoniae; in the test with Klebsiella aerogenes; with Candida albicans; against Staphylococcus aureus) was above 125 µg/mL in each case.

For `NC[C@H]1O[C@H](O[C@H]2[C@H](O)[C@@H](O[C@H]3O[C@H](CO)[C@@H](O)[C@H](N)[C@H]3O)[C@H](N)C[C@@H]2N)[C@H](O)[C@@H](O)[C@@H]1O` [KANAMYCIN], the minimum inhibitory concentration (MIC) in test [1] was 3.9 µg/mL (≈ 8.05 µM); in the test on Klebsiella pneumoniae, 2 µg/mL (≈ 4.13 µM); against Klebsiella aerogenes, 3.9 µg/mL (≈ 8.05 µM); in the test with Staphylococcus aureus, 2 µg/mL (≈ 4.13 µM).

With `CO[C@H]1/C=C/O[C@@]2(C)Oc3c(C)c(O)c4c(O)c(c(/C=N/N5CCN(C)CC5)c(O)c4c3C2=O)NC(=O)/C(C)=C\C=C\[C@H](C)[C@H](O)[C@@H](C)[C@@H](O)[C@@H](C)[C@H](OC(C)=O)[C@@H]1C` [RIFAMPIN], in the test on Candida albicans, the minimal inhibitory concentration (MIC) was found to be 3.9 µg/mL (≈ 4.74 µM).
